The target of this test is T1, acetylcholine muscarinic M1 receptor (CHOnfat/hM1 cells) (Homo sapiens, UniProt P11229).
T1 construct: expressed in transfected cells; host or cells: CHOnfat cells (CHOnfat/hM1; Geneticin-selected)
T1 sequence (P11229 1-460): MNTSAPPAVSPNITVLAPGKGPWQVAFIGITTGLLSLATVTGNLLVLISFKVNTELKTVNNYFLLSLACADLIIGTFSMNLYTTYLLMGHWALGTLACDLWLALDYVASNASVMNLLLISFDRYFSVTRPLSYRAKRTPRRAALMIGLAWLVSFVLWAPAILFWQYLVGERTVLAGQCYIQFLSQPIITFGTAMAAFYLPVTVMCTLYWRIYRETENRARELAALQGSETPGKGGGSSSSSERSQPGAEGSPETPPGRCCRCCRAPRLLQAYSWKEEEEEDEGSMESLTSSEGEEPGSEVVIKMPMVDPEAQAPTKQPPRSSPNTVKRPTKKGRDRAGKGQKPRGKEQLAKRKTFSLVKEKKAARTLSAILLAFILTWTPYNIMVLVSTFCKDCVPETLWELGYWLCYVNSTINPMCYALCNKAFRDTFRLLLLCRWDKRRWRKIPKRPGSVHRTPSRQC
As to the kind of experiment: muscarinic M1 FLIPR intracellular calcium assay (positive allosteric modulation). The note with it: FLIPR Ca2+, 4 min preincubation, then EC20 acetylcholine (3 nM final), read-out: IP Value (inflection point). Format: cell-based. The method, then: The assay studies the effect of one or several concentrations of test compounds on basal or acetylcholine-stimulated Ca^2+ levels using FLIPR.
Compounds are prepared and subjected to a preincubation period of 4 min. Thereafter, a single EC20 concentration of acetylcholine is added to each well (3 nM final). The intracellular Ca^2+ level of each sample is measured and compared to an acetylcholine control to determine any modulatory activity.
Cells: CHOnfat/hM1, hM2, hM3 or hM4 cells are plated 24 hr before the assay at a density of 18,000 cells/well (100 μL) in a 384 well plate. CHOnfat/hM1 and CHOnfat/hM3 Growth Medium: 90% DMEM (Hi Glucose); 10% HI FBS; 2 mM L-glutamine; 0.1 mM NEAA; Pen-Strep; and 1 mg/ml Geneticin, are added. For M2Gqi5CHOnfat and M4Gqi5CHOnfat cells, an additional 600 ug/ml hygromycin is added.
Equipment: 384 well plate, 1204 addition plate; 96-well Whatman 2 ml Uniplate Incubator, 37° C., 5% CO2; Skatron EMBLA-384 Plate Washer; Multimek Pipetting System; Genesis Freedom 200 System; Mosquito System; Temo Nanoliter Pipetting System; and FLIPR^384 Fluorometric Imaging Plate Reader System are used.
Buffers. Assay Buffer: Hanks Balanced Salt Solution, with 20 mM Hepes, 2.5 mM Probenecid (Sigma P-8761) first dissolved in 1 N NaOH, 1% Bovine Serum Albumin (Sigma A-9647). Dye Loading Buffer: Assay Buffer plus 1% Fetal Bovine Serum and Fluo-4AM/Pluronic Acid Mixture. 2 mM Fluo-4AM ester stock in DMSO (Molecular Probes F-14202) Concentration of 2 μM in buffer for a final concentration of 1 μM in Assay. 20% Pluronic Acid Solution stock, with concentration of 0.04% in Buffer, 0.02% in Assay.
65 μL of 2 mM Fluo-4AM are mixed with 130 μL of 20% Pluronic Acid. The resulting solution and 650 μL FBS is added to the assay buffer for a total volume of 65 mL. Positive Controls: 4-Br-A23187: 10 mM in DMSO; final concentration 10 μM. Acetylcholine: 10 mM in water, working stock at both 20 μM and 30 μM in assay buffer, final concentration of 10 μM. This is used to check the maximum stimulation of the CHOK1/hM1 cells, 20 μM (2×) acetylcholine is added in the preincubation part of the assay, and the 30 μM (3×) stock is added in the second part. (EC20)Acetylcholine: 10 mM in water, working stock of 9 nM (3×), and final concentration in assay is 3 nM. This is used after the preincubation with test compounds. Addition of the EC20 Acetylcholine to each well with a test compound will ascertain any modulator activity. 24 wells contain 3 nM Acetylcholine alone as a control.
Determining Activity of Putative Compounds:
Screening Plate Compounds are titrated in 96-well plates (columns 2-11), 100% DMSO, started at a concentration of 15 mM (150× stock concentration), and 3-fold serial dilutions using Genesis Freedom200 System. Four 96-well plates are combined into a 384-well plate using Mosquito Nanoliter Pipetting System by transferring 1 μl of serial diluted compounds to each well, and 1 mM acetylcholine (100× stock concentration) were added as a control. Using Temo, 49 μl assay buffer is added to each well of the 384-well plate right before assay.
In a 96-well Whatman 2 ml Uniplate, 9 nM Acetylcholine (3×) is pipetted into wells corresponding to the screening compounds, and into control wells. The 30 μM acetylcholine control (3×) is added into control wells, and the 3× agonist plate is transferred into a 384 well plate.
Cells are washed three times with 100 μl, of buffer, leaving 30 μl of buffer in each well. Using Multimek, 30 μL of Dye Loading Buffer is added into each well and incubated at 37° C., 5% CO2 for up to one hr.
After 60 min, the cells are washed three times with 100 μl of buffer, leaving 30 μl, of buffer in each well. The cell plate, screening plate, and agonist addition plates are placed on the platform in the FLIPR and the door closed. A signal test to check background fluorescence and basal fluorescence signal is performed. Laser intensity is adjusted if necessary. […]
(In general: Calcium assays in cells follow changes in intracellular calcium, usually with a dye or a luminescent sensor.)
Turning to `O=c1c2cn(Cc3ccc(-n4cccn4)cc3)c3ccccc3c-2nn1[C@H]1CCCC[C@@H]1O` (racemic) [Example 508, (±)-2-(trans-2-Hydroxycyclohexyl)-5-{[4-(1H-pyrazol-1-yl)phenyl]methyl}-2,5-dihydro-3H-pyrazolo[4,3-c]quinolin-3-one], the EC50 is 33 nM.
`O=C1CCCCC1n1nc2c3ccccc3n(Cc3ccc(-n4cccn4)cc3)cc-2c1=O` (racemic) [Example 720, (±)-2-(2-oxocyclohexyl)-5-{[4-(1H-pyrazol-1-yl)phenyl]methyl}-2,5-dihydro-3H-pyrazolo[4,3-c]quinolin-3-one]: the EC50 was determined as 135 nM.
For the compound `Cc1ccnc(N[C@H]2CCCC[C@@H]2n2cc3c(=O)n(-c4nccc(C)c4F)nc-3c3c(NCc4ccc(-n5cccn5)cc4)c(F)ccc32)c1F` (racemic) [Example 733, (±)-8-Fluoro-2-(3-fluoro-4-methylpyridin-2-yl)-5-trans-2-[(3-fluoro-4-methylpyridin-2-yl)amino]cyclohexy}-9-({[4-(1H-pyrazol-1-yl)phenyl]methyl}amino)-2,5-dihydro-3H-pyrazolo[4,3-c]quinolin-3-one], the EC50 was 653 nM.
Next, `COc1ccc(Cn2cc3c(=O)n(-c4ccccc4F)nc-3c3ccccc32)cc1` [Example 1, 2-(2-Fluorophenyl)-5-{[4-(methoxy)phenyl]methyl}-2,5-dihydro-3H-pyrazolo[4,3-c]quinolin-3-one]: 415 nM; `O=c1c2cn(Cc3ccc(-c4ccccc4)cc3)c3ccccc3c-2nn1-c1ccccc1F` [Example 8, 2-(2-Fluorophenyl)-5-(biphenyl-4-ylmethyl)-2,5-dihydro-3H-pyrazolo[4,3-c]quinolin-3-one]: 1990 nM.
Next, `Cn1cnc(-n2nc3c4c(F)ccc(F)c4n(Cc4ccc(-n5cccn5)cc4)cc-3c2=O)c1` [Example 24, 6,9-Difluoro-2-(1-methyl-1H-imidazol-4-yl)-5-{[4-(1H-pyrazol-1-yl)phenyl]methyl}-2,5-dihydro-3H-pyrazolo[4,3-c]quinolin-3-one]: 103 nM; `O=c1c2cn(Cc3ccc(-n4cccn4)cc3)c3c(F)ccc(F)c3c-2nn1-c1ccccc1CO` [Example 55, 6,9-Difluoro-2-[2-(hydroxymethyl)phenyl]-5-{[4-(1H-pyrazol-1-yl)phenyl]methyl}-2,5-dihydro-3H-pyrazolo[4,3-c]quinolin-3-one]: 204 nM; `CCNCc1ccccc1-n1nc2c3c(F)ccc(F)c3n(Cc3ccc(-n4cccn4)cc3)cc-2c1=O` [Example 56]: 123 nM.
For `O=c1c2cn(Cc3ccc(-n4cccn4)cc3)c3c(F)ccc(F)c3c-2nn1-c1ncccc1C(F)(F)F` [Example 77, 6,9-Difluoro-5-{[4-(1H-pyrazol-1-yl)phenyl]methyl}-2-[3-(trifluoromethyl)pyridin-2-yl]-2,5-dihydro-3H-pyrazolo[4,3-c]quinolin-3 one], the EC50 amounted to 65 nM.
With `O=c1c2cn(Cc3ccc(-n4cncn4)cc3F)c3c(F)ccc(F)c3c-2nn1-c1ccccc1F` [Example 84, 6,9-Difluoro-2-(2-fluorophenyl)-5-{[2-fluoro-4-(1H-1,2,4-triazol-1-yl)phenyl]methyl}-2,5-dihydro-3H-pyrazolo[4,3-c]quinolin-3-one] the figure was 348 nM; with `O=c1c2cn(Cc3ccc(-n4cccn4)cc3)c3ccccc3c-2nn1-c1ccccc1F` [Example 107, 2-Fluorophenyl-5-{[4-(1H-pyrazol-1-yl)phenyl]methyl}-2,5-dihydro-3H-pyrazolo[4,3-c]quinolin-3-one], 59 nM.
In the case of `O=c1c2cn(Cc3ccc4[nH]ccc4c3)c3ccccc3c-2nn1-c1ccccc1F` [Example 109, 2-(2-Fluorophenyl)-5-(1H-indol-5-ylmethyl)-2,5-dihydro-3H-pyrazolo[4,3-c]quinolin-3-one], the EC50 was determined as 90 nM.
On to `O=c1c2cn(Cc3nccc4ccccc34)c3ccccc3c-2nn1-c1ccccc1F` [Example 128], for which the EC50 was found to be 1290 nM.
With `O=c1c2cn(Cc3ccc(-c4ccc5[nH]ccc5c4)cc3F)c3ccccc3c-2nn1-c1ccccc1F` [Example 187, 5{[2-Fluoro-4-(1H-indol-5-yl)phenyl]methyl}-2-(2-fluorophenyl)-2,5-dihydro-3H-pyrazolo[4,3-c]quinolin-3-one] the figure was 1640 nM; with `CC(C)Cn1cc(-c2ccc(Cn3cc4c(=O)n(-c5ccccc5F)nc-4c4ccccc43)cn2)cn1` [Example 242], 159 nM; with `Cc1ccc(-c2ccc(Cn3cc4c(=O)n(-c5ccccc5F)nc-4c4ccccc43)nc2)cn1` [Example 258], 246 nM.
With `O=c1c2cn(Cc3c(F)cccc3F)c3ccccc3c-2nn1-c1ccccc1F` [Example 294], the EC50 came out at 824 nM.
Consider `O=c1c2cn(Cc3ccc(-c4ncco4)cc3)c3ccccc3c-2nn1-c1ccccc1F` [Example 381], for which the EC50 stood at 900 nM.
As for `O=c1c2cn(Cc3ccc(-n4cccn4)cc3)c3ccccc3c-2nn1C1CCOCC1` [Example 428], the EC50 is 359 nM.
Next, `O=C1CCc2cccc(-n3nc4c5ccccc5n(Cc5ccc(-n6cccn6)cc5)cc-4c3=O)c21` [Example 587]: 4.8 nM; `CNC(=O)c1ccccc1-n1nc2c3ccccc3n(Cc3ccc(-n4cccn4)cc3)cc-2c1=O` [Example 612, N-Methyl-2-(3-oxo-5-{[4-(1H-pyrazol-1-yl)phenyl]methyl}-3,5-dihydro-2H-pyrazolo[4,3-c]quinolin-2-yl)benzamide]: 4870 nM; `O=c1c2cn(Cc3ccc(-n4cccn4)cc3)c3ccccc3c-2nn1-c1ccccc1CN1CCCC1` [Example 648, 5-{[4-(1H-Pyrazol-1-yl)phenyl]methyl}-2-[2-(pyrrolodin-1-ylmethyl)phenyl]-2,5-dihydro-3H-pyrazolo[4,3-c]quinolin-3-one]: 179 nM.
With `N#Cc1cccc(F)c1-n1nc2c3ccccc3n(Cc3ccc(-n4cccn4)cc3)cc-2c1=O` [Example 667, 3-Fluoro-2-(3-oxo-5-{[4-(1H-pyrazol-1-yl)phenyl]methyl}-3,5-dihydro-2H-pyrazolo[4,3-c]quinolin-2-yl)benzonitrile] the figure was 22 nM; with `CC(=O)N1CCC(n2nc3c4ccccc4n(Cc4ccc(-n5cccn5)cc4)cc-3c2=O)CC1` [Example 675, 2-(1-Acetylpiperidin-4-yl)-5-{[4-(1H-pyrazol-1-yl)phenyl]methyl}-2,5-dihydro-3H-pyrazolo[4,3-c]quinolin-3-one5], 664 nM.
